Here are results for 65 compounds from ChEMBL document CHEMBL3988442, “University of Dundee, Small-Polar-MMV Screening Library” (2021).

The target in one test is ClpP1P2 (Mycobacterium tuberculosis (strain ATCC 25618 / H37Rv), UniProt P9WPC3+P9WPC5). Briefly: in vitro assay to detect presence of AMC directly proportional to the activity of ClpP1P2. GHDDI collaboration. In kind it is functional.
Test [1] is described as follows: microbe, parasite or virus in culture. The following applies: Mycobacterium tuberculosis, 96 h, read-out: pIC50 (converted).
Test [2] is described as follows: microbe, parasite or virus in culture. Particulars: Mycobacterium tuberculosis, 72 h, read-out: pIC50 (converted).
In the next test the test system is Schistosoma mansoni. Briefly: High throughput screening of compounds against Schistosoma mansoni motility. In kind it is functional. Set-up: dose or concentration left out as unconfirmed.
The next test deals with Plasmodium falciparum. The experiment in a line: Calibr Malaria Delayed Death Assay SOP. In kind it is functional, organism-based. The following applies: for IC50: Plasmodium falciparum.

ClpP1P2, sequence (P9WPC5 whole entry): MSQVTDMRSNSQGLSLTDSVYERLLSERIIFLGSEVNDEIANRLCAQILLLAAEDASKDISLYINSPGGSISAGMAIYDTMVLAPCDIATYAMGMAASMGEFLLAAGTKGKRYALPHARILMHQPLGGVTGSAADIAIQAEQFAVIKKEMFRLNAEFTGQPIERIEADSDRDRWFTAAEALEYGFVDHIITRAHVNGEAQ
ClpP1P2, sequence (P9WPC3 whole entry): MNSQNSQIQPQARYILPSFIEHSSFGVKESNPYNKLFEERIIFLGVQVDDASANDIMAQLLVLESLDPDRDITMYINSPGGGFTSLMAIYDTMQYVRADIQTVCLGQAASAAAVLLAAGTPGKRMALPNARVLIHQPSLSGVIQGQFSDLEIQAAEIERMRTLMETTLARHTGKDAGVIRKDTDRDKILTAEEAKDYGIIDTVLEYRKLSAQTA

For the compound `Cc1n[nH]c(=O)c2c(NC(=O)CN3CCOC(C)C3)oc(C)c12` (stereo not given), the IC50 on ClpP1P2 was over 100 µM. As to `COC(=O)CNC(=O)c1cn(-c2ccccn2)c(=O)c2ccccc12`, the values for the IC50 (in test [1]; at ClpP1P2; in test [2]) were over 50.1 µM, over 100 µM and over 50.1 µM, respectively. On to `CC(C)n1ccc(-c2cc(C(=O)NC3CC3)c3ccccn23)n1`, for which the IC50 in test [1] was 14 µM; on ClpP1P2, over 100 µM; in test [2], 16.5 µM.

For the compound `CCc1cc(=O)[nH]c2nnc(SCC(=O)OC)n12`, in the test with Schistosoma mansoni, the “Percent Effect” value is -72.76%. `CCCc1nnsc1C(=O)NCC1CCN(S(C)(=O)=O)CC1`: in the test with Schistosoma mansoni, the “Percent Effect” value is -25.98%. For `O=C(c1ccc(=O)[nH]n1)N1CC(c2nc(Cc3ccccc3)no2)C1`, the “Percent Effect” value in the test with Schistosoma mansoni is -36.12%.

Consider `O=C(NCC1CCN(C(=O)c2ccoc2)CC1)c1ccccc1Br`, for which, in the test on Schistosoma mansoni, the “Percent Effect” value is reported as -0.2634%.

Take `O=C(NCCN1CCC(c2cccs2)CC1)c1ccccc1C(F)(F)F`: the “Percent Effect” value in the test on Schistosoma mansoni amounted to 2.003%. As for `COc1ccccc1OCC(=O)NCC(O)(c1ccccc1)C1CC1` (stereo not given), the “Percent Effect” value with Schistosoma mansoni is on record as -13.46%.

Consider `COc1ccccc1NC(=O)NCC(O)(c1ccccc1)C1CC1` (stereo not given), for which, in the test with Schistosoma mansoni, the “Percent Effect” value amounted to 57.61%. As to `O=S(=O)(NCC1(O)CCOc2ccccc21)c1cccs1` (stereo not given), the “Percent Effect” value in the test on Schistosoma mansoni is listed as -21.06%.

Consider `COC(=O)c1sccc1S(=O)(=O)N1CCC(Oc2ncccc2Cl)CC1`, for which the “Percent Effect” value in the test on Schistosoma mansoni is -59.58%. For `CC(=O)N1CCC(Oc2ccc(C#N)cn2)CC1`, the “Percent Effect” value in the test on Schistosoma mansoni is on record as -36.18%.

Regarding `Cn1cnnc1S(=O)(=O)C1CCN(S(=O)(=O)c2c(Cl)cccc2Cl)CC1`, the “Percent Effect” value in the test on Schistosoma mansoni is listed as -2.116%. `COc1cccc(C(C)Nc2ncnc3c2NC(=O)CN3)c1` (stereo not given): the results for the IC50 (in test [1]; at ClpP1P2; in test [2]) were over 50.1 µM, over 100 µM and over 50.1 µM, respectively. For `Cc1cc(C)c2cc(CNC3CCCCC3)c3nn(C)c(=O)n3c2c1`, the IC50 at ClpP1P2 was over 100 µM; in the test with Plasmodium falciparum it was 1.04 µM. In addition, the pIC50 (in general, the IC50 on a negative log10 scale, so that one unit is a factor of ten) in the test on Plasmodium falciparum is listed as 5.941. With `CCc1nc(CN2CCCN(Cc3cnn(C)c3)CC2)no1`, the “Percent Effect” value in the test on Schistosoma mansoni is -82.4%. `CC(NC(=O)C1=NN(C)C(=O)CC1)c1ccc(F)cc1F` (stereo not given): the “Percent Effect” value in the test on Schistosoma mansoni is reported as -36.47%.

As to `Cc1cccc(C2(C(=O)NCCCn3cccn3)CC2)c1`, in the test with Schistosoma mansoni, the “Percent Effect” value is recorded as -39.94%. In the case of `Cc1nn(C)c(N(C)C)c1CNCC(O)c1ccccc1` (stereo not given), the “Percent Effect” value with Schistosoma mansoni is given as -48.71%. For `Cc1nc(C(C)(C)NC(=O)Nc2ccccc2)no1`, the “Percent Effect” value in the test with Schistosoma mansoni was -55.91%. The same measure, in the same setting: the value for `CCCc1cc(NC2CCc3ncnn3C2)n2ncnc2n1` (stereo not given) was -6.308%; that for `CC(C#N)CSc1ccccc1NCC(=O)Nc1ccc(F)cc1` (stereo not given) was 55.09%; that for `Cc1cnn(CC2CCCN2Cc2coc(-c3cccs3)n2)c1` (stereo not given) was -52.32%. For `CN(CCC(F)(F)F)C(=O)C1CCCN1C(=O)OC(C)(C)C` (stereo not given), the “Percent Effect” value with Schistosoma mansoni was -26.39%. On the same count and under the same terms, the value for `CCc1ncc2c(n1)CN(Cc1nnc(C)o1)CC2` was -12.75%. With `CCc1nnc2n1CC(CNCc1ccncc1)CC2` (stereo not given), the “Percent Effect” value in the test on Schistosoma mansoni is listed as -67.25%. Regarding `Cc1ncc(CNC(=O)Nc2cc(C(F)(F)F)c[nH]c2=O)s1`, the “Percent Effect” value in the test on Schistosoma mansoni was -39.38%.

Take `Cc1nccn1-c1cc(CNC(=O)C(C)(C)C)ccn1`: the “Percent Effect” value with Schistosoma mansoni is given as -28.12%.

Turning to `CCCOc1cc(C)ccc1NC(=O)NCCC(=O)N(C)C`, the “Percent Effect” value in the test with Schistosoma mansoni is given as -17.12%. In the case of `CCCOc1ccc(NC(=O)NCCC(=O)N(C)C)cc1Cl`, the “Percent Effect” value in the test on Schistosoma mansoni was -22.9%. `O=C(CCc1nccs1)N1CCCC(N2CCNC2=O)C1` (stereo not given): the “Percent Effect” value in the test with Schistosoma mansoni is recorded as -31.05%. Take `CN(C)C(=O)C1CCCN1CCCNC(=O)c1ccccc1F` (stereo not given): the “Percent Effect” value with Schistosoma mansoni is given as -45.94%. The same measure, in the same setting: with `CN(C)C(CNC(=O)c1cccc(-n2cnnn2)c1)c1ccccc1Cl` (stereo not given) the figure was 53.46%; with `CC1CN(C)c2ccccc2CN1C(=O)CSc1ccncc1` (stereo not given), 7.617%. Take `O[C@@H]1CN(c2cnc3ccccc3n2)CC[C@H]1c1ccc2c(c1)OCO2`: the IC50 in test [1] is 2.21 µM; on ClpP1P2, over 100 µM; in test [2], 3.18 µM. `Cc1cc2nc(C(C)C)cc(N(C)CC3CCN(C(C)C)C3)n2n1` (stereo not given): the IC50 is over 50.1 µM in test [1], over 100 µM on ClpP1P2 and over 50.1 µM in test [2]. As to `OCC1(CC2CCCCO2)CCN(c2cnc3ccccc3n2)CC1` (stereo not given), the IC50 in test [1] is 10.7 µM; at ClpP1P2 it was over 100 µM; in test [2] it was 13.4 µM.

For the compound `COCCCC1(CO)CCCN(CCc2ccccc2)C1` (stereo not given), the “Percent Effect” value in the test on Schistosoma mansoni was -47.32%. Turning to `Cc1cncc(C(=O)N2CCCC(C(=O)CCc3ccccc3)C2)c1` (stereo not given), the “Percent Effect” value with Schistosoma mansoni was -9.118%. With `Cc1cc(C[C@@H]2COC[C@@H]2NC(=O)Cn2c(=O)oc3ccccc32)on1`, the “Percent Effect” value in the test with Schistosoma mansoni is -26.12%. Take `O=C(c1cccnc1)N1C[C@@H]2CC[C@H](C1)N(Cc1cc(F)ccc1F)C2`: the “Percent Effect” value in the test on Schistosoma mansoni is -34.82%.

Regarding `CCOCCC(=O)N1CCCC(c2ncc[nH]2)C1` (stereo not given), in the test on Schistosoma mansoni, the “Percent Effect” value is on record as -61.02%. `CCn1c(N)nc2cc(C(=O)NCCc3sccc3C)cnc21`: the “Percent Effect” value in the test with Schistosoma mansoni is -77.79%. In the case of `Cn1ncc2c(NCCOc3ccc(F)cc3)nc(C3CCCC3)nc21`, the “Percent Effect” value in the test on Schistosoma mansoni worked out at 106.6%. Regarding `Fc1ccccc1-c1noc2c1CN(CC1CC1)CC2`, in the test with Schistosoma mansoni, the “Percent Effect” value is -95.25%. In the case of `CN(CCCc1cnn(C)c1)C(=O)C1COc2ccccc2C1` (stereo not given), in the test with Schistosoma mansoni, the “Percent Effect” value was -70.43%. For `COc1ccc(OC)c(-c2nc(CN(C)Cc3nncn3C)c(C)o2)c1`, in the test on Schistosoma mansoni, the “Percent Effect” value was -42.05%.

Turning to `CNc1nc(C(=O)N2CCCC(c3nccn3CC3CCC3)C2)cs1` (stereo not given), in the test on Schistosoma mansoni, the “Percent Effect” value is -15.23%. With `CCCNCC1(O)CCCN(Cc2cccc(C)c2)C1=O` (stereo not given), the “Percent Effect” value in the test on Schistosoma mansoni is given as -43.91%. With `Cc1cc(C(=O)N2CCC(c3nccn3CCCN(C)C)CC2)no1`, the “Percent Effect” value in the test on Schistosoma mansoni is -19.46%. As to `CC(C)(C)c1ccn(C2(C(=O)O)CCN(c3nccc(N)n3)CC2)n1`, the “Percent Effect” value in the test on Schistosoma mansoni came out at 14.42%. On the same count and under the same terms, the value for `CCC(O)CNC(=O)c1coc(COc2ccc3sc(C)nc3c2)n1` (stereo not given) was -24.85%. `CC(C)OCc1ccc(CNc2cncc(-n3cccn3)n2)cc1`: the IC50 is 17 µM in test [1], over 100 µM at ClpP1P2 and over 50.1 µM in test [2]. For `COCCN1CCC(CNC(=O)C2(c3ccc(Br)cc3)CCCC2)C1` (stereo not given), the IC50 is over 100 µM at ClpP1P2 and 0.541 µM in the test with Plasmodium falciparum. In the test with Plasmodium falciparum, the pIC50 came to 6.366. As to `CC(Cc1ccco1)NC(=O)Nc1ccc(N2CCCC2)nc1` (stereo not given), on ClpP1P2, the IC50 is over 100 µM.

As to `Cc1nc(CN(C)C2CCN(Cc3nc4ccccc4n3C)C2)no1` (stereo not given), the IC50 at ClpP1P2 was over 100 µM. As for `CC(Cn1cccn1)NC(=O)Cc1csc(C(C)C)n1` (stereo not given), the IC50 on ClpP1P2 was over 100 µM.

Turning to `COc1ccc(CNC(=O)Nc2cccnc2N2CCCC2)cc1OC`, on ClpP1P2, the IC50 is over 100 µM. For the compound `Cn1cc(-c2nc(CNCCn3cccn3)cs2)cn1`, on ClpP1P2, the IC50 is over 100 µM.

As for `Cc1n[nH]c(=O)c2c(NC(=O)CN3CCCC(C(F)(F)F)C3)oc(C)c12` (stereo not given), on ClpP1P2, the IC50 is over 100 µM. `COC(=O)COc1cccc(NS(=O)(=O)c2cc(C(=O)O)cs2)c1`: the IC50 at ClpP1P2 was over 100 µM. Consider `COc1ccc(S(N)(=O)=O)cc1C(=O)N(C)Cc1cc(C)on1`, for which, on ClpP1P2, the IC50 is over 100 µM. For the compound `Cc1n[nH]c(=O)c2c(NC(=O)CN3CCC(O)CC3)oc(C)c12`, the IC50 on ClpP1P2 is over 100 µM. Consider `CCn1cncc1CN1CCN(CC2(c3ccc(C)cc3)CC2)CC1.Cl`, for which, at ClpP1P2, the IC50 is over 100 µM. Also, in the test on Plasmodium falciparum, the pIC50 was found to be 6 and the IC50 is 1.11 µM.
